The record followed here is patent US20250313563A1, “GLYCOGEN SYNTHASE KINASE 3 INHIBITORS AND USES THEREOF” (The Broad Institute, Inc., priority 2022, published 2025).

For assay [1], the target named is GSK3α (GST-full length GSK3α) (Homo sapiens (Human), UniProt P49840). Kind of assay: GSK3α TR-FRET kinase assay. The assay is classed as biochemical. The protocol: (§1) TR-FRET Assay: The assay was performed in a white, 384 well, low volume, flat bottom plate (Grenier). After a 30 minute preincubation in assay buffer with the indicated concentration of compound, the kinase activity was initiated by the addition of the substrates. 1 nM GSK3α (GST-full length GSK3α [SignalChem G08-10G]) or 1 nM GSK3b (GST-full length GSK3b: [SignalChem G08-9G]) were then incubated at ambient temperature for 100 minutes in 10 μL of 50 mM Tris, pH 7.5, 20 mM MgCl2, 0.05 mM DTT, 100 μg/mL BSA and 1% DMSO, with 200 nM biotinylated peptide substrate (biotinylated and S645 phosphorylated glycogen synthase 631-650) and either 4 μM ATP (GSK3α, Table 16) or 2 μM ATP (GSK3b, Table 16) or 1 mM ATP (Table 17). The kinase activity was quenched with 2 μL of 250 mM EDTA. A 10 μL volume of 40 nM Strepavidin-d2, 2 nM Tb^2+-pSer641 antibody in TR-FRET Detection Buffer (Invitrogen) was then added. After 60 min at room temperature the plate was read on Envision plate reader using Ex: 340 nm, Em: 615 nm and […]. The normalized 665/615 Signal ratio versus log compound concentration was analyzed by XLFIT to yield IC50 values.

The target of assay [2] is GSK3b (GST-full length GSK3b) (Homo sapiens (Human), UniProt P49841). Put plainly: GSK3b TR-FRET kinase assay. The assay is classed as biochemical. As for the experimental part:
as §1

Where [3] appears, read: 1 nM GSK3α, 4 μM ATP, 30 minute preincubation, geometric mean, read-out: GSK3-A TR-FRET BIOCHEMICAL (TR-FRET), GMean, IC50.
Where [4] appears, read: GSK3-A (TR-FRET 1 mM ATP), GMean, IC50, 1 mM ATP, geometric mean.
Setting [5] is: 1 nM GSK3b, 2 μM ATP, 30 minute preincubation, geometric mean, read-out: GSK3-B TR-FRET BIOCHEMICAL (TR-FRET), GMean, IC50.
The mark [6] stands for this setting: GSK3-B (TR-FRET 1 mM ATP), GMean, IC50, 1 mM ATP, geometric mean.
Where [7] appears, read: 1 nM GSK3α, 4 μM ATP, 30 minute preincubation, Table 16, read-out: GSK3-A TR-FRET BIOCHEMICAL (TR-FRET).
The mark [8] stands for this setting: 1 nM GSK3b, 2 μM ATP, 30 minute preincubation, Table 16, read-out: GSK3-B TR-FRET BIOCHEMICAL (TR-FRET).
[9] abbreviates: read-out: GSK3-A (TR-FRET 1 mM ATP), GMean, IC50, 1 mM ATP, geometric mean.
The mark [10] stands for this setting: read-out: GSK3-B (TR-FRET 1 mM ATP), GMean, IC50, 1 mM ATP, geometric mean.

SMILES strings stand for the structures. Where two headings read alike, the source gives them in different places.

Chain of GSK3α (GST-full length GSK3α) (P49840 whole entry): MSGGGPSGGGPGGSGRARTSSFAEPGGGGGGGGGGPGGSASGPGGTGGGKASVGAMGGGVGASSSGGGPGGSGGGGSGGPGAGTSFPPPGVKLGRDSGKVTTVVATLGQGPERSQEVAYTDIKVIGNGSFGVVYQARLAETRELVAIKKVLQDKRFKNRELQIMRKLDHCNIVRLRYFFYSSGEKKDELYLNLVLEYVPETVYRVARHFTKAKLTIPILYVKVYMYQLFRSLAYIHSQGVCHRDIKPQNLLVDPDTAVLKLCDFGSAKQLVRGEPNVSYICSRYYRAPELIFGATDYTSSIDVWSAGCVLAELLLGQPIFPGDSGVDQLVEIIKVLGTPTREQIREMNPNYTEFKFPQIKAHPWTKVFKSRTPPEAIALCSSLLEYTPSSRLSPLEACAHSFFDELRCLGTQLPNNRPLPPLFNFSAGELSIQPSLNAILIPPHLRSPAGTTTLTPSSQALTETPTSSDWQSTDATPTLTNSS
Chain of GSK3b (GST-full length GSK3b) (P49841 whole entry): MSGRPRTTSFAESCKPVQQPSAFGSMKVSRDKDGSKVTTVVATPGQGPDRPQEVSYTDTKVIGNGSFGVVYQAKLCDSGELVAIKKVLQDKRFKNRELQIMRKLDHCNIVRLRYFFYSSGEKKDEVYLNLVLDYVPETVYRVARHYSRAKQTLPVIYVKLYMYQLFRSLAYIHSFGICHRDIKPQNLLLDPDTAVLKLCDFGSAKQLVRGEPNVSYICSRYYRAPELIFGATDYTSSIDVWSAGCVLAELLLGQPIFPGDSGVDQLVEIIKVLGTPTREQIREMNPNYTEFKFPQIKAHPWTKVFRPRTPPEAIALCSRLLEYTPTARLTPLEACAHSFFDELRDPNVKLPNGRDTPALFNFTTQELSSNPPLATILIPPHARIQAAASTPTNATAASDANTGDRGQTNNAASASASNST

Consider `CCC1(c2cccc(C(F)(F)F)c2)C2=C(Nc3n[nH]cc31)C(F)C(C)(C)CC2=O` (single isomer, unassigned) [Compound 837683, 4-ethyl-8-fluoro-7,7-dimethyl-4-(3-(trifluoromethyl)phenyl)-2,4,6,7,8,9-hexahydro-5H-pyrazolo[3,4-b]quinolin-5-one], for which the IC50 was at most 0.1 µM in assay [1] (setting [3]), 0.1 to 1 µM in assay [1] (setting [4]), 0.1 to 1 µM in assay [2] (setting [5]) and over 5 µM in assay [2] (setting [6]).

Regarding `CCC1(c2cccc(C(F)(F)F)c2)C2=C(Nc3n[nH]cc31)C(F)C(C)(C)CC2=O` (single isomer, unassigned) [Compound 837753, 4-ethyl-8-fluoro-7,7-dimethyl-4-(3-(trifluoromethyl)phenyl)-2,4,6,7,8,9-hexahydro-5H-pyrazolo[3,4-b]quinolin-5-one], the IC50 in assay [1] (setting [3]) was 0.1 to 1 µM; in assay [1] (setting [4]), over 5 µM; in assay [2] (setting [5]), over 5 µM; in assay [2] (setting [6]), over 5 µM.

`CCC1(c2cccc(C(F)(F)F)c2)C2=C(Nc3n[nH]cc31)C(F)C(C)(C)CC2=O` (single isomer, unassigned) [Compound 837803, 4-ethyl-8-fluoro-7,7-dimethyl-4-(3-(trifluoromethyl)phenyl)-2,4,6,7,8,9-hexahydro-5H-pyrazolo[3,4-b]quinolin-5-one]: the IC50 was 1 to 5 µM in assay [1] (setting [3]), over 5 µM in assay [1] (setting [4]), over 5 µM in assay [2] (setting [5]) and over 5 µM in assay [2] (setting [6]).

For `CCC1(c2cccc(-c3cn(C)nc3C)c2)C2=C(Nc3n[nH]cc31)C(F)C(C)(C)CC2=O` (single isomer, unassigned) [Compound 947650, 4-(3-(1,3-dimethyl-1H-pyrazol-4-yl)phenyl)-4-ethyl-8-fluoro-7,7-dimethyl-2,4,6,7,8,9-hexahydro-5H-pyrazolo[3,4-b]quinolin-5-one], the IC50 in assay [1] (setting [7]) is at most 0.1 µM; in assay [1] (setting [4]) it was 0.1 to 1 µM; in assay [2] (setting [8]), at most 0.1 µM; in assay [2] (setting [6]), over 5 µM.

With `CCC1(c2cccc(-c3cn(C)nc3C)c2)C2=C(Nc3n[nH]cc31)C(F)C(C)(C)CC2=O` (single isomer, unassigned) [Compound 947652, 4-(3-(1,3-dimethyl-1H-pyrazol-4-yl)phenyl)-4-ethyl-8-fluoro-7,7-dimethyl-2,4,6,7,8,9-hexahydro-5H-pyrazolo[3,4-b]quinolin-5-one], the IC50 was at most 0.1 µM in assay [1] (setting [7]), 0.1 to 1 µM in assay [1] (setting [4]), 0.1 to 1 µM in assay [2] (setting [8]) and over 5 µM in assay [2] (setting [6]).

In the case of `CCC1(c2cccc(-c3cn(C)nc3C)c2)C2=C(Nc3n[nH]cc31)C(F)C(C)(C)CC2=O` (single isomer, unassigned) [Compound 947653, 4-(3-(1,3-dimethyl-1H-pyrazol-4-yl)phenyl)-4-ethyl-8-fluoro-7,7-dimethyl-2,4,6,7,8,9-hexahydro-5H-pyrazolo[3,4-b]quinolin-5-one], the IC50 in assay [1] (setting [7]) is at most 0.1 µM; in assay [2] (setting [8]) it was 0.1 to 1 µM.

`CC1(C)CC(=O)C2=C(C1)Nc1n[nH]cc1[C@]21CO[C@@H](C2CC2)C1` (stereo in doubt) [Compound 913185]: the IC50 fell in the range of 0.1 to 1 µM in assay [1] (setting [7]) and 1 to 5 µM in assay [2] (setting [8]).

With `CC(C)(C)Cc1[nH]nc2c1C1(CN(C(=O)OCc3ccccc3)C1)C1=C(CC(C)(C)CC1=O)N2` [Compound 90330], the IC50 in assay [1] (setting [9]) and in assay [2] (setting [10]) was over 5 µM in each case.

Turning to `CC(C)(C)Cc1[nH]nc2c1C1(CCN(c3ccccc3)CC1)C1=C(CC(C)(C)CC1=O)N2` [Compound 92315], the IC50 in assay [1] (setting [9]) and in assay [2] (setting [10]) was over 5 µM throughout.

In the case of `CC(C)(C)Cc1[nH]nc2c1[C@@](C)(c1cccc(S(=O)(=O)CC3CC3)c1)C1=C(CC(C)(C)NC1=O)N2` [Compound 108006], the IC50 in assay [1] (setting [9]) and in assay [2] (setting [10]) was over 5 µM throughout.

`CC(C)(C)Cc1[nH]nc2c1C(C)(c1cccc(S(=O)(=O)N3CCCC3)c1)C1=C(CC(C)(C)NC1=O)N2` (stereo not shown) [Compound 108791]: the IC50 in assay [1] (setting [9]) was 1 to 5 µM; in assay [2] (setting [10]) it was 0.1 to 1 µM.

As for `CC(C)(C)Cc1[nH]nc2c1[C@@](C)(c1cccc(S(=O)(=O)N3CCCC3)c1)C1=C(CC(C)(C)NC1=O)N2` [Compound 108794], the IC50 in assay [1] (setting [9]) and in assay [2] (setting [10]) was over 5 µM throughout.

Consider `COc1cncc(F)c1-c1cccc([C@@]2(C)C3=C(CC(C)(C)CC3=O)Nc3n[nH]c(CC(C)(C)C)c32)c1` [Compound 108956], for which the IC50 in assay [1] (setting [9]) is over 5 µM; in assay [2] (setting [10]), 1 to 5 µM.

For the compound `CC1(C)CC2=C(C(=O)N1)[C@](C)(c1cccc(S(C)(=O)=O)c1)c1c(n[nH]c1C1CC1)N2` [Compound 114744], the IC50 in assay [1] (setting [4]) and in assay [2] (setting [6]) was over 5 µM throughout.

With `CC(C)(C)Cc1[nH]nc2c1C1(COc3ccccc31)C1=C(CC(C)(C)CC1=O)N2` (stereo not shown) [Compound 117093], the results for the IC50 in assay [1] (setting [9]) and in assay [2] (setting [10]) were 1 to 5 µM and 0.1 to 1 µM, respectively.

As for `CN1CC2(C3=C(CC(C)(C)CC3=O)Nc3n[nH]c(C4CC(F)(F)C4)c32)c2ccccc21` (stereo not shown) [Compound 119047], the IC50 in assay [1] (setting [9]) is 1 to 5 µM; in assay [2] (setting [10]), 0.1 to 1 µM.

With `CN1CC2(C3=C(CC(C)(C)CC3=O)Nc3n[nH]c(CC(C)(C)C)c32)c2ccccc21` (stereo not shown) [Compound 125979], the IC50 in assay [1] (setting [9]) was over 5 µM; in assay [2] (setting [10]), 1 to 5 µM.

With `Cn1cncc1-c1cccc([C@@]2(C)C3=C(CC(C)(C)CC3=O)Nc3n[nH]c(CC(C)(C)C)c32)c1` [Compound 126015], the IC50 in assay [1] (setting [9]) and in assay [2] (setting [10]) was over 5 µM in each case.

For the compound `C[S+]([O-])c1cccc(C2(C)C3=C(CC(C)(C)CC3=O)Nc3n[nH]c(CC(C)(C)C)c32)c1` (stereo not shown) [Compound 126191], the results for the IC50 in assay [1] (setting [9]) and in assay [2] (setting [10]) were over 5 µM and 0.1 to 1 µM, respectively.

Consider `Cn1cc(-c2cccc([C@@]3(C)C4=C(CC(C)(C)CC4=O)Nc4n[nH]c(CC(C)(C)C)c43)c2)cn1` [Compound 126367], for which the IC50 in assay [1] (setting [9]) and in assay [2] (setting [10]) was over 5 µM throughout.

Consider `CC(C)(C)Cc1[nH]nc2c1[C@@](C)(c1cccc(S(=O)(=O)C(F)(F)F)c1)C1=C(CC(C)(C)CC1=O)N2` [Compound 126396], for which the IC50 in assay [1] (setting [9]) and in assay [2] (setting [10]) was over 5 µM throughout.

On to `CC1(C)CC(=O)C2=C(C1)Nc1n[nH]c(C3CC(F)(F)C3)c1C21COc2ccccc21` (stereo not shown) [Compound 127429], for which the IC50 in assay [1] (setting [9]) was over 5 µM; in assay [2] (setting [10]) it was 1 to 5 µM.

As to `CCC1(c2ccc(F)cc2)C2=C(CC(C)(C)CC2=O)Nc2n[nH]cc21` (stereo not shown) [Compound 772965], the IC50 was 1 to 5 µM in assay [1] (setting [3]) and over 5 µM in assay [2] (setting [5]).

With `CC1(C)CC(=O)C2=C(C1)Nc1n[nH]cc1C2(C)c1cc(F)cc(F)c1` (stereo not shown) [Compound 785735], the IC50 in assay [1] (setting [3]) was 0.1 to 1 µM; in assay [2] (setting [5]), over 5 µM.

For `Cc1cccc(C2(C)C3=C(CC(C)(C)CC3=O)Nc3n[nH]cc32)c1` (stereo not shown) [Compound 785736], the figures for the IC50 in assay [1] (setting [3]) and in assay [2] (setting [5]) were at most 0.1 µM and 0.1 to 1 µM, respectively.

In the case of `CCC1(c2ccccc2)C2=C(CC3(CCCC3)CC2=O)Nc2n[nH]cc21` (stereo not shown) [Compound 785737], the IC50 is at most 0.1 µM in assay [1] (setting [3]) and 0.1 to 1 µM in assay [2] (setting [5]).

Take `CCC1(c2cccc(C)c2)C2=C(CC(C)(C)CC2=O)Nc2n[nH]cc21` (stereo not shown) [Compound 785738]: the IC50 in assay [1] (setting [3]) was at most 0.1 µM; in assay [2] (setting [5]), 0.1 to 1 µM.

Consider `CCC1(c2ccc(C)cc2)C2=C(CC(C)(C)CC2=O)Nc2n[nH]cc21` (stereo not shown) [Compound 785739], for which the IC50 is 0.1 to 1 µM in assay [1] (setting [3]) and over 5 µM in assay [2] (setting [5]).

Regarding `CCC1(CC)C2=C(CC(C)(C)CC2=O)Nc2n[nH]c(C)c21` [Compound 786061], the results for the IC50 in assay [1] (setting [7]) and in assay [2] (setting [8]) were 0.1 to 1 µM and over 1.67 µM, respectively.

As to `CC1(C)CC(=O)C2=C(C1)Nc1n[nH]cc1C2(C)C` [Compound 786065], the IC50 is 1 to 5 µM in assay [1] (1 nM GSK3α, 4 μM ATP, 30 minute preincubation, Table 16, read-out: GSK3-A TR-FRET BIOCHEMICAL (TR-FRET), IC50) and over 1.67 µM in assay [2] (1 nM GSK3b, 2 μM ATP, 30 minute preincubation, Table 16, read-out: GSK3-B TR-FRET BIOCHEMICAL (TR-FRET), IC50).

Turning to `Cc1[nH]nc2c1C1(CCCC1)C1=C(CC(C)(C)CC1=O)N2` [Compound 786072], the IC50 in assay [1] (setting [7]) and in assay [2] (setting [8]) was at most 0.1 µM throughout.

In the case of `CC[C@@]1(c2ccccc2)C2=C(C[C@H](C)CC2=O)Nc2n[nH]cc21` [Compound 789009], the IC50 in assay [1] (setting [3]) and in assay [2] (setting [5]) was over 5 µM throughout.

As to `CC[C@@]1(c2ccccc2)C2=C(C[C@@H](C)CC2=O)Nc2n[nH]cc21` [Compound 789010], the IC50 in assay [1] (setting [3]) and in assay [2] (setting [5]) was 0.1 to 1 µM each time.
